Data on 4 compounds can be found in patent US20190225650A1, “PEPTIDOMIMETIC MACROCYCLES AND USE THEREOF IN REGULATING HIF1ALPHA” (AILERON THERAPEUTICS, INC., priority 2013, published 2019).

The subject of experiment [1] is HRE-bla ME-180 cells. In words: Reporter gene assay (HRE-bla ME-180 HIF reporter, GeneBLAzer). The experiment is classed as cell-based, human. The conditions noted are these: for EC50: 24 hour normoxia. In a few lines:
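A FRET β-lactamase readout of HIF transcription was used. After compound treatment in 0.3% DMSO/media under normoxic conditions, 20 μl of 6× LiveBLAzer-FRET B/G (CCF4-AM) substrate was added. Plates sat 3 hr at room temperature in the dark and were read at 409 Ex/460Em and 409Ex/530Em on a Synergy 2. Inhibition was compared against DMSO vehicle controls, with chetomin as positive control.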

The target in experiment [2] is T1, flag-tagged HIF1α (AA 786-826) / His6-tagged p300 (AA 323-423) complex (Homo sapiens, UniProt Q09472).
T1 construct: His6-tagged p300 (AA 323-423); made in house; host or cells: E. coli (pETDuet vector)
The experiment is described as follows: HIF1α p300 displacement assay (TR FRET, +CHAPS). The experiment is classed as binding. Particulars: read-out: IC50 (nM) (HIF1α_p300 Displacement + CHAPS). A digest of the protocol:
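In this TR-FRET displacement format, peptides compete HIF1α C-terminal transactivation domain off p300-CH. They were preincubated 1 h at room temperature with 300 nM complex in HEPES pH 7.4/NaCl buffer with 7.5 mM CHAPS and 1 mM DTT. Anti-His-D2 (4 nM) and anti-Flag-K (0.5 μM) followed for 2 h, and a one-site fit of the fluorescence ratio gave IC50.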

The test system of experiment [3] is HRE-bla ME-180 cells. The experiment is described as follows: Cell proliferation assay (viability, MTT, 1% FBS). The experiment is classed as cell-based, human. In a few lines:
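Viable cell number was measured with the CellTiter 96 (MTT) kit after compounds were applied for a 16 h normoxic (21% O2) pretreatment, followed by further normoxic or hypoxic (1% O2) culture. Cells: 2×10^4 ME-180 per well, Opti-MEM + 1% FBS, 0.5% DMSO vehicle.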

Bridge positions count the residues as written; N and C are the ends. Square brackets hold non-standard residues; d marks the D form. Peptide text beside a SMILES is read from it. S5 = C=CCCC[C@](C)(N)C(=O)O

T1 sequence (Q09472 323-423, one chain of several): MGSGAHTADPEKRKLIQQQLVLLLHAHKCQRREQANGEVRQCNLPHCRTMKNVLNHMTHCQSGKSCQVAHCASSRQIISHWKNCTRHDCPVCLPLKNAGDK

Turning to `CC[C@H](C)[C@H](NC(=O)[C@H](CCCNC(=N)N)NC(=O)[C@H](CC(N)=O)NC(=O)[C@H](CC(C)C)NC(=O)[C@H](C)NC(=O)[C@H](CCSC)NC(=O)[C@]1(C)CCCC=CCCC[C@](C)(NC(=O)[C@H](CCSC)NC(=O)[C@H](CC(C)C)NC(=O)[C@@H](NC(=O)[C@H](C)NC(=O)[C@H](CCC(N)=O)NC(=O)[C@H](CC(=O)O)NC(=O)[C@@H](NC(=O)[C@H](Cc2ccccc2)NC(C)=O)[C@@H](C)CC)C(C)C)C(=O)N[C@@H](CC(C)C)C(=O)N[C@@H](C(C)C)C(=O)N[C@@H]([C@@H](C)CC)C(=O)N1)C(N)=O` [SP-270] (Ac-FIDQAVLM[S5]LVI[S5]MALNRI-NH2; staple 9-13), in the experiment on HRE-bla ME-180 cells [1], the “18 h Avg % max inhibition at top conc (HIF Rptr-24 hrs normoxia) (μM)” value (“18 h Avg % max inhibition at top conc” for short) is given as “++ (≤10 but <25: ++)” and the EC50 is > 30 µM. In experiment [2], the IC50 is > 700 nM. Further, the “Viability 1% FBS AVG (MTT V3-24 hr Normoxia) (μM)” value (“Viability 1% FBS AVG” for short) in the experiment with HRE-bla ME-180 cells [3] is “++++ (≥30: ++++)”.

As for `CC[C@H](C)[C@H](NC(=O)[C@H](CCCNC(=N)N)NC(=O)[C@H](CC(=O)O)NC(=O)[C@H](CC(C)C)NC(=O)[C@H](C)NC(=O)[C@H](CCSC)NC(=O)[C@]1(C)CCCC=CCCC[C@](C)(NC(=O)[C@H](CCSC)NC(=O)[C@H](CC(C)C)NC(=O)[C@@H](NC(=O)[C@H](C)NC(=O)[C@H](CCC(N)=O)NC(=O)[C@H](CC(N)=O)NC(=O)[C@@H](NC(=O)[C@H](Cc2ccccc2)NC(C)=O)[C@@H](C)CC)C(C)C)C(=O)N[C@@H](CC(C)C)C(=O)N[C@@H](C(C)C)C(=O)N[C@@H]([C@@H](C)CC)C(=O)N1)C(N)=O` [SP-271] (Ac-FINQAVLM[S5]LVI[S5]MALDRI-NH2; staple 9-13), in the experiment with HRE-bla ME-180 cells [1], the “18 h Avg % max inhibition at top conc” value is on record as “+++ (≤25 but <50: +++)” and the 50% effective concentration (EC50) was > 30 µM. Besides, the IC50 in experiment [2] is > 700 nM. Further, the “Viability 1% FBS AVG” value in the experiment on HRE-bla ME-180 cells [3] is on record as “++++ (≥30: ++++)”.

For the compound `CC[C@H](C)[C@H](NC(=O)[C@H](CCCNC(=N)N)NC(=O)[C@H](CC(N)=O)NC(=O)[C@H](CC(C)C)NC(=O)[C@H](C)NC(=O)[C@H](CCSC)NC(=O)[C@]1(C)CCCC=CCCC[C@](C)(NC(=O)[C@H](CCSC)NC(=O)[C@H](CC(C)C)NC(=O)[C@@H](NC(=O)[C@H](C)NC(=O)[C@H](CCC(N)=O)NC(=O)[C@H](CC(N)=O)NC(=O)[C@@H](NC(=O)[C@H](Cc2ccccc2)NC(C)=O)[C@@H](C)CC)C(C)C)C(=O)N[C@@H](CC(C)C)C(=O)N[C@@H](C(C)C)C(=O)N[C@@H]([C@@H](C)CC)C(=O)N1)C(N)=O` [SP-272] (Ac-FINQAVLM[S5]LVI[S5]MALNRI-NH2; staple 9-13), in the experiment with HRE-bla ME-180 cells [1], the “18 h Avg % max inhibition at top conc” value is “++++ (≥50: ++++)” and the concentration giving a half-maximal response (EC50) is ≤ 5 µM. Further, the IC50 in experiment [2] was > 700 nM. Besides, in the experiment on HRE-bla ME-180 cells [3], the “Viability 1% FBS AVG” value is reported as “++ (≤5 but <15: ++)”.

Regarding `CC[C@H](C)[C@H](NC(=O)[C@H](Cc1ccccc1)NC(C)=O)C(=O)N[C@@H](CC(=O)O)C(=O)N[C@@H](CCC(=O)O)C(=O)N[C@@H](CCC(=O)O)C(=O)N[C@H](C(=O)N[C@@H](CC(C)C)C(=O)N[C@@H](CCSC)C(=O)N[C@@]1(C)CCCC=CCCC[C@@](C)(C(=O)N[C@@H](CCSC)C(=O)N[C@@H](C)C(=O)N[C@@H](CC(C)C)C(=O)N[C@@H](CC(=O)O)C(=O)N[C@@H](CCCNC(=N)N)C(N)=O)NC(=O)[C@H]([C@@H](C)CC)NC(=O)[C@H](C(C)C)NC(=O)[C@H](CC(C)C)NC1=O)C(C)C` [SP-281] (Ac-FIDEEVLM[S5]LVI[S5]MALDR-NH2; staple 9-13), in the experiment with HRE-bla ME-180 cells [1], the “18 h Avg % max inhibition at top conc” value is on record as “++++ (≥50: ++++)” and the EC50 was in the range of 5 to 15 µM. For the same compound, the IC50 in experiment [2] fell in the range of 400 to 700 nM. For the same compound, in the experiment with HRE-bla ME-180 cells [3], the “Viability 1% FBS AVG” value is reported as “++++ (≥30: ++++)”.
